pIC50: −log10 of the molar value.
System: HT29 cells
Experiment: Inhibition of cell necrosis (CCK8 method), induced programmed necrosis of HT29 cells
Format: cell-based
Details: Homo sapiens, HT-29; rescue from necrosis induced by TNF-α 20 ng/mL, AT-406 1 μM, Z-VAD-FMK 20 μM; 16-20 hours; CCK-8, OD 450 nm
Summary of the method: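 Rescue from programmed necrosis was scored by CCK-8 absorbance at 450 nm after 16-20 h of TNF-α (20 ng/mL), AT-406 (1 μM) and Z-VAD-FMK (20 μM) at 37 °C, 5% CO2. HT29 cells had received compound 30 min earlier across nine 4-fold dilutions (top 25000 nM final). IC50 came from % inhibition relative to uninduced and induced-only wells.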

SMILES	pIC50
COCCOc1ccc(Cl)c(-c2ccnc(NC(=O)c3nnc(CC4CCCC4)[nH]3)c2)c1 [Example 381, N-(4-(2-chloro-5-(2-methoxyethoxy)phenyl)pyridin-2-yl)-5-(cyclopentylmethyl)-4H-1,2,4-triazole-3-carboxamide]	≥ 7.00
COCCOc1ccc(Cl)c(-c2ccnc(NC(=O)c3nnc(CC4CCCCC4)[nH]3)c2)c1 [Example 382, N-(4-(2-chloro-5-(2-methoxyethoxy)phenyl)pyridin-2-yl)-5-(cyclohexylmethyl)-4H-1,2,4-triazole-3-carboxamide]	≥ 7.00
CCOCCOc1ccc(Cl)c(-c2ccnc(NC(=O)c3nnc(Cc4ccccc4)[nH]3)c2)c1 [Example 383, 5-benzyl-N-(4-(2-chloro-5-(2-ethoxyethoxy)phenyl)pyridin-2-yl)-4H-1,2,4-triazole-3-carboxamide]	≥ 7.00
CCOCCOc1ccc(Cl)c(-c2ccnc(NC(=O)c3nnc(Cc4ccccc4F)[nH]3)c2)c1 [Example 384, 5-(2-fluorobenzyl)-N-(4-(2-chloro-5-(2-ethoxyethoxy)phenyl)pyridin-2-yl)-4H-1,2,4-triazole-3-carboxamide]	≥ 7.00
CCOCCOc1ccc(Cl)c(-c2ccnc(NC(=O)c3nnc(CC4CCCC4)[nH]3)c2)c1 [Example 385, N-(4-(2-chloro-5-(2-ethoxyethoxy)phenyl)pyridin-2-yl)-5-(cyclopentylmethyl)-4H-1,2,4-triazole-3-carboxamide]	≥ 7.00
CCOCCOc1ccc(Cl)c(-c2ccnc(NC(=O)c3nnc(CC4CCCCC4)[nH]3)c2)c1 [Example 386, N-(4-(2-chloro-5-(2-ethoxyethoxy)phenyl)pyridin-2-yl)-5-(cyclohexylmethyl)-4H-1,2,4-triazole-3-carboxamide]	≥ 7.00
CC(C)OCCOc1ccc(Cl)c(-c2ccnc(NC(=O)c3nnc(Cc4ccccc4)[nH]3)c2)c1 [Example 387, 5-benzyl-N-(4-(2-chloro-5-(2-isopropoxyethoxy)phenyl)pyridin-2-yl)-4H-1,2,4-triazole-3-carboxamide]	≥ 7.00
CC(C)OCCOc1ccc(Cl)c(-c2ccnc(NC(=O)c3nnc(Cc4ccccc4F)[nH]3)c2)c1 [Example 388, 5-(2-fluorobenzyl)-N-(4-(2-chloro-5-(2-isopropoxyethoxy)phenyl)pyridin-2-yl)-4H-1,2,4-triazole-3-carboxamide]	≥ 7.00
CC(C)OCCOc1ccc(Cl)c(-c2ccnc(NC(=O)c3nnc(CC4CCCC4)[nH]3)c2)c1 [Example 389, N-(4-(2-chloro-5-(2-isopropoxyethoxy)phenyl)pyridin-2-yl)-5-(cyclopentylmethyl)-4H-1,2,4-triazole-3-carboxamide]	≥ 7.00
CC(C)OCCOc1ccc(Cl)c(-c2ccnc(NC(=O)c3nnc(CC4CCCCC4)[nH]3)c2)c1 [Example 390, N-(4-(2-chloro-5-(2-isopropoxyethoxy)phenyl)pyridin-2-yl)-5-(cyclohexylmethyl)-4H-1,2,4-triazole-3-carboxamide]	≥ 7.00
CC(C)(C)OCCOc1ccc(Cl)c(-c2ccnc(NC(=O)c3nnc(Cc4ccccc4)[nH]3)c2)c1 [Example 391, 5-benzyl-N-(4-(5-(2-(tert-butoxy)ethoxy)-2-chlorophenyl)pyridin-2-yl)-4H-1,2,4-triazole-3-carboxamide]	≥ 7.00
CC(C)(C)OCCOc1ccc(Cl)c(-c2ccnc(NC(=O)c3nnc(Cc4ccccc4F)[nH]3)c2)c1 [Example 392, 5-(2-fluorobenzyl)-N-(4-(5-(2-(tert-butoxy)ethoxy)-2-chlorophenyl)pyridin-2-yl)-4H-1,2,4-triazole-3-carboxamide]	≥ 7.00
CC(C)(C)OCCOc1ccc(Cl)c(-c2ccnc(NC(=O)c3nnc(CC4CCCC4)[nH]3)c2)c1 [Example 393, N-(4-(5-(2-(tert-butoxy)ethoxy)-2-chlorophenyl)pyridin-2-yl)-5-(cyclopentylmethyl)-4H-1,2,4-triazole-3-carboxamide]	≥ 7.00
CC(C)(C)OCCOc1ccc(Cl)c(-c2ccnc(NC(=O)c3nnc(CC4CCCCC4)[nH]3)c2)c1 [Example 394, N-(4-(5-(2-(tert-butoxy)ethoxy)-2-chlorophenyl)pyridin-2-yl)-5-(cyclohexylmethyl)-4H-1,2,4-triazole-3-carboxamide]	≥ 7.00
COCCCOc1ccc(Cl)c(-c2ccnc(NC(=O)c3nnc(Cc4ccccc4)[nH]3)c2)c1 [Example 395, 5-benzyl-N-(4-(2-chloro-5-(3-methoxypropoxy)phenyl)pyridin-2-yl)-4H-1,2,4-triazole-3-carboxamide]	≥ 7.00
COCCCOc1ccc(Cl)c(-c2ccnc(NC(=O)c3nnc(Cc4ccccc4F)[nH]3)c2)c1 [Example 396, 5-(2-fluorobenzyl)-N-(4-(2-chloro-5-(3-methoxypropoxy)phenyl)pyridin-2-yl)-4H-1,2,4-triazole-3-carboxamide]	≥ 7.00
COCCCOc1ccc(Cl)c(-c2ccnc(NC(=O)c3nnc(CC4CCCC4)[nH]3)c2)c1 [Example 397, N-(4-(2-chloro-5-(3-methoxypropoxy)phenyl)pyridin-2-yl)-5-(cyclopentylmethyl)-4H-1,2,4-triazole-3-carboxamide]	≥ 7.00
COCCCOc1ccc(Cl)c(-c2ccnc(NC(=O)c3nnc(CC4CCCCC4)[nH]3)c2)c1 [Example 398, N-(4-(2-chloro-5-(3-methoxypropoxy)phenyl)pyridin-2-yl)-5-(cyclohexylmethyl)-4H-1,2,4-triazole-3-carboxamide]	≥ 7.00
O=C(Nc1cc(-c2cc(OCC3CCOCC3)ccc2Cl)ccn1)c1nnc(Cc2ccccc2)[nH]1 [Example 399, 5-benzyl-N-(4-(2-chloro-5-((tetrahydro-2H-pyran-4-yl)methoxy)phenyl)pyridin-2-yl)-4H-1,2,4-triazole-3-carboxamide]	≥ 7.00
O=C(Nc1cc(-c2cc(OCC3CCOCC3)ccc2Cl)ccn1)c1nnc(Cc2ccccc2F)[nH]1 [Example 400, 5-(2-fluorobenzyl)-N-(4-(2-chloro-5-((tetrahydro-2H-pyran-4-yl)methoxy)phenyl)pyridin-2-yl)-4H-1,2,4-triazole-3-carboxamide]	≥ 7.00
O=C(Nc1cc(-c2cc(OCC3CCOCC3)ccc2Cl)ccn1)c1nnc(CC2CCCC2)[nH]1 [Example 401, N-(4-(2-chloro-5-((tetrahydro-2H-pyran-4-yl)methoxy)phenyl)pyridin-2-yl)-5-(cyclopentylmethyl)-4H-1,2,4-triazole-3-carboxamide]	≥ 7.00
O=C(Nc1cc(-c2cc(OCC3CCOCC3)ccc2Cl)ccn1)c1nnc(CC2CCCCC2)[nH]1 [Example 402, N-(4-(2-chloro-5-((tetrahydro-2H-pyran-4-yl)methoxy)phenyl)pyridin-2-yl)-5-(cyclohexylmethyl)-4H-1,2,4-triazole-3-carboxamide]	≥ 7.00
O=C(Nc1cc(-c2cc(OCCC3CCOCC3)ccc2Cl)ccn1)c1nnc(Cc2ccccc2)[nH]1 [Example 403, 5-benzyl-N-(4-(2-chloro-5-(2-(tetrahydro-2H-pyran-4-yl)ethoxy)phenyl)pyridin-2-yl)-4H-1,2,4-triazole-3-carboxamide]	≥ 7.00
O=C(Nc1cc(-c2cc(OCCC3CCOCC3)ccc2Cl)ccn1)c1nnc(Cc2ccccc2F)[nH]1 [Example 404, N-(4-(2-chloro-5-(2-(tetrahydro-2H-pyran-4-yl)ethoxy)phenyl)pyridin-2-yl)-5-(2-fluorobenzyl)-4H-1,2,4-triazole-3-carboxamide]	≥ 7.00

From US12435060B2, “Acylamino bridged heterocyclic compound, and composition and application thereof” (BEIJING SCITECH-MQ PHARMACEUTICALS LIMITED, priority 2019, dated 2025)
